Assay results published in patent US20250263370A1 (Tay Therapeutics Limited, priority 2022, published 2025).
Values joined by “and” are separate entries in the source; they are usually repeats but may differ in a detail not shown here. Equal values may be shown once.

Tested on: collagen-induced arthritis
Assay: Collagen-induced arthritis (CIA) model in rats: body weight, paw volume, clinical scores, clinical observations; for Average detailed clinical score, left hind limb: key of the grades not given here; for Average detailed clinical score, right hind limb: key of the grades not given here; for Detailed Clinical Scores, left forelimb: key of the grades not given here; for Detailed Clinical Scores, left hind limb: key of the grades not given here; for Detailed Clinical Scores, right forelimb: key of the grades not given here; for Detailed Clinical Scores, right hind limb: key of the grades not given here; for Detailed Clinical Scores, score: key of the grades not given here; for Detailed Clinical Scores: left forelimb: key of the grades not given here; for Detailed Clinical Scores: left hind limb: key of the grades not given here; for Detailed Clinical Scores: right forelimb: key of the grades not given here; for Detailed Clinical Scores: right hind limb: key of the grades not given here; for Detailed Clinical Scores: score: key of the grades not given here; for Mean overall clinical score ± SD: key of the grades not given here; for overall clinical score: key of the grades not given here
Details: for Mean animal paw volume ± SD: group mean; for Animal paw volume percent change: individual animals; for Average detailed clinical score, left forelimb / Average detailed clinical score, left hind limb / Average detailed clinical score, right forelimb / Average detailed clinical score, right hind limb / Average detailed clinical score, score / Mean overall clinical score ± SD / Detailed Clinical Scores, left forelimb / Detailed Clinical Scores, left hind limb / Detailed Clinical Scores, right forelimb / Detailed Clinical Scores, right hind limb / Detailed Clinical Scores, score / Overall clinical score / Detailed Clinical Scores: left forelimb / Detailed Clinical Scores: left hind limb / Detailed Clinical Scores: right forelimb / Detailed Clinical Scores: right hind limb / Detailed Clinical Scores: score: CIA rats; for Detailed Clinical Scores, left forelimb / Detailed Clinical Scores, left hind limb / Detailed Clinical Scores, right forelimb / Detailed Clinical Scores, right hind limb / Detailed Clinical Scores, score / Detailed Clinical Scores: left forelimb / Detailed Clinical Scores: left hind limb / Detailed Clinical Scores: right forelimb / Detailed Clinical Scores: right hind limb / Detailed Clinical Scores: score: individual animals ID 1-8; for Overall clinical score: individual animals #1-8
Experimental: Prior to be randomly placed in treatment groups, animals were weighed, and paw volume was measured. Once randomly assigned to treatment groups, on Day 0, animals in groups 2-9 were immunized by subcutaneous injection at the base of the tail.
The immunization comprised 100 μL of the CFA+Collagen emulsion (prepared according to the method in Experimental Method A). Animals in group one received no immunization. Seven days after the first injection, animals in groups 2-9 received a booster immunization comprising 200 μL of the IFA+Collagen emulsion (prepared according to the method in Experimental Method A).
Starting on Day 0, animals in group 1 and 2 were administered daily doses of the vehicle per os (P.O.) for 21 days. […] The twice daily doses for animals in groups 4-9 were 8 hours apart (e.g., the first dose at 8:00 AM and the second dose at 4:00 PM).
Body weight of all animals was recorded daily for the 21-day period. Blind clinical scores on all four limbs were conducted for all animals in the study. Animals were assessed prior to receiving their first dose of the compound or control, and scores for each limb were combined to a total daily score for each animal. Clinical score assessments were performed on Day 0, 6, 12, 13, 14, 15, 18, 19, and 21 (for a total of 9 daily scores).
Paw volume was recorded for each animal on Day 0, 6, 12, 13, 14, 15, 18, 19, and 21 (for a total of 9 measurements). To measure paw volume, animals were gently held with one hand while the hind paw was placed into a plethysmometer with the other hand. Lipid displacement by the paw was recorded and used to represent paw volume.
All data measured and recorded was analyzed using SPSS 16.0 software. Groups were compared using one-way ANOVA and significance was set at p<0.05.

CNC(=O)c1cc(C(=O)NC2CC2)cn(Cc2ccccc2)c1=O [GSK620]
Mean animal paw volume ± SD (Day 13, L paw): 1.38 mL | Animal paw volume percent change (Day 13, L paw): 5.12% and 1.52% and 12.65% and −0.73% and 4.01% and 2.25% and 4.56% and 3.33% | Mean animal paw volume ± SD (Day 13, R paw): 1.41 mL | Animal paw volume percent change (Day 13, R paw): 9.84% and 3.07% and 10.98% and 14.65% and 3.66% and 3.02% and 6.04% and 3.75% | Average detailed clinical score, left forelimb (Day 13): 0.00 | Average detailed clinical score, left hind limb (Day 13): 0.00 | Average detailed clinical score, right forelimb (Day 13): 0.00 | Average detailed clinical score, right hind limb (Day 13): 0.13 | Average detailed clinical score, score (Day 13): 0.13 | Mean overall clinical score ± SD (Day 13): 0 ± 0 | Detailed Clinical Scores, left forelimb (Day 13): 0 | Detailed Clinical Scores, left hind limb (Day 13): 0 | Detailed Clinical Scores, right forelimb (Day 13): 0 | Detailed Clinical Scores, right hind limb (Day 13): 0 (7×) and 1 | Detailed Clinical Scores, score (Day 13): 0 (7×) and 1 | Overall clinical score (Day 13): 0 (7×) and 1 | Mean animal paw volume ± SD (Day 14, L paw): 1.55 mL | Animal paw volume percent change (Day 14, L paw): 21.65% and 34.98% and 13.44% and −0.37% and 4.01% and 4.87% and 31.18% and 27.78% | Mean animal paw volume ± SD (Day 14, R paw): 1.67 mL | Animal paw volume percent change (Day 14, R paw): 37.01% and 14.18% and 12.55% and 54.58% and 4.40% and 3.77% and 49.81% and 36.70% | Average detailed clinical score, left forelimb (Day 14): 0.00 | Average detailed clinical score, left hind limb (Day 14): 0.88 | Average detailed clinical score, right forelimb (Day 14): 0.00 | Average detailed clinical score, right hind limb (Day 14): 1.13 | Average detailed clinical score, score (Day 14): 2.00 | Mean overall clinical score ± SD (Day 14): 2 ± 2 | Detailed Clinical Scores, left forelimb (Day 14): 0 | Detailed Clinical Scores, left hind limb (Day 14): 1 and 2 (3×) and 0 (4×) | Detailed Clinical Scores, right forelimb (Day 14): 0 | Detailed Clinical Scores, right hind limb (Day 14): 2 (3×) and 0 (4×) and 3 | Detailed Clinical Scores, score (Day 14): 3 (2×) and 2 and 0 (3×) and 4 (2×) | Overall clinical score (Day 14): 3 (2×) and 2 and 0 (3×) and 4 (2×) | Mean animal paw volume ± SD (Day 15, L paw): 1.74 mL | Animal paw volume percent change (Day 15, L paw): 60.24% and 53.99% and 9.49% | Mean animal paw volume ± SD (Day 15, R paw): 1.86 mL | Animal paw volume percent change (Day 15, R paw): 61.02% and 59.00% and 7.84% | Average detailed clinical score, left forelimb (Day 15): 0.00 | Average detailed clinical score, left hind limb (Day 15): 1.63 | Average detailed clinical score, right forelimb (Day 15): 0.00 | Average detailed clinical score, right hind limb (Day 15): 2.00 | Average detailed clinical score, score (Day 15): 3.63 | Mean overall clinical score ± SD (Day 15): 4 ± 2 | Detailed Clinical Scores: left forelimb (Day 15): 0 | Detailed Clinical Scores: left hind limb (Day 15): 3 (3×) and 0 (2×) and 1 (2×) and 2 | Detailed Clinical Scores: right forelimb (Day 15): 0 | Detailed Clinical Scores: right hind limb (Day 15): 3 (3×) and 0 (2×) and 4 and 1 and 2 | Detailed Clinical Scores: score (Day 15): 6 (3×) and 0 and 4 (2×) and 1 and 2 | Overall clinical score (Day 15): 6 (3×) and 0 and 4 (2×) and 1 and 2 | Mean animal paw volume ± SD (Day 18, L paw): 2.48 mL | Animal paw volume percent change (Day 18, L paw): 113.78% and 92.78% and 88.54% | Mean animal paw volume ± SD (Day 18, R paw): 2.35 mL | Animal paw volume percent change (Day 18, R paw): 105.91% and 87.36% and 88.63% | Average detailed clinical score, left forelimb (Day 18): 0.00 | Average detailed clinical score, left hind limb (Day 18): 3.88 | Average detailed clinical score, right forelimb (Day 18): 0.00 | Average detailed clinical score, right hind limb (Day 18): 3.38 | Average detailed clinical score, score (Day 18): 7.25 | Mean overall clinical score ± SD (Day 18): 7 ± 1 | Detailed Clinical Scores: left forelimb (Day 18): 0 | Detailed Clinical Scores: left hind limb (Day 18): 4 (7×) and 3 | Detailed Clinical Scores: right forelimb (Day 18): 0 | Detailed Clinical Scores: right hind limb (Day 18): 4 (6×) and 0 and 3 | Detailed Clinical Scores: score (Day 18): 8 (6×) and 4 and 6 | Overall clinical score (Day 18): 8 (6×) and 4 and 6 | Mean animal paw volume ± SD (Day 19, L paw): 2.54 mL | Animal paw volume percent change (Day 19, L paw): 112.99% and 92.78% | Mean animal paw volume ± SD (Day 19, R paw): 2.36 mL | Animal paw volume percent change (Day 19, R paw): 103.54% and 88.12% | Average detailed clinical score, left forelimb (Day 19): 0.75 | Average detailed clinical score, left hind limb (Day 19): 3.63 | Average detailed clinical score, right forelimb (Day 19): 0.25 | Average detailed clinical score, right hind limb (Day 19): 3.00 | Average detailed clinical score, score (Day 19): 7.63 | Mean overall clinical score ± SD (Day 19): 8 ± 2 | Detailed Clinical Scores: left forelimb (Day 19): 1 (6×) and 0 (2×) | Detailed Clinical Scores: left hind limb (Day 19): 4 (5×) and 3 (3×) | Detailed Clinical Scores: right forelimb (Day 19): 0 (6×) and 1 (2×) | Detailed Clinical Scores: right hind limb (Day 19): 4 (3×) and 3 (4×) and 0 | Detailed Clinical Scores: score (Day 19): 9 (2×) and 10 and 6 and 5 and 7 (2×) and 8 | Overall clinical score (Day 19): 9 (2×) and 10 and 6 and 5 and 7 (2×) and 8 | Mean animal paw volume ± SD (Day 21, L paw): 2.53 mL | Animal paw volume percent change (Day 21, L paw): 112.99% and 90.49% | Mean animal paw volume ± SD (Day 21, R paw): 2.35 mL | Animal paw volume percent change (Day 21, R paw): 106.69% and 86.59% | Average detailed clinical score, left forelimb (Day 21): 0.88 | Average detailed clinical score, left hind limb (Day 21): 3.63 | Average detailed clinical score, right forelimb (Day 21): 0.25 | Average detailed clinical score, right hind limb (Day 21): 3.13 | Average detailed clinical score, score (Day 21): 7.88 | Mean overall clinical score ± SD (Day 21): 8 ± 2 | Detailed Clinical Scores: left forelimb (Day 21): 1 (5×) and 2 and 0 (2×) | Detailed Clinical Scores: left hind limb (Day 21): 4 (5×) and 3 (3×) | Detailed Clinical Scores: right forelimb (Day 21): 0 (6×) and 1 (2×) | Detailed Clinical Scores: right hind limb (Day 21): 4 (3×) and 3 (4×) and 1 | Detailed Clinical Scores: score (Day 21): 9 (2×) and 11 and 6 (2×) and 7 (2×) and 8 | Overall clinical score (Day 21): 9 (2×) and 11 and 6 (2×) and 7 (2×) and 8
